Where “and” joins values, the source holds several entries; their conditions need not be identical. Equal entries are not always repeated.
Assays:
[1] = system: three broadleaf weeds (morning glory, mustard, velvetleaf); set-up: species or system Ipomoea purpurea, Brassica kaber, Abutilon theophrasti; settings: in vivo
[2] = system: three broadleaf weeds (morning glory, mustard, velvetleaf); set-up: species or system Ipomoea purpurea, Brassica kaber, Abutilon theophrasti; settings: in vivo; remark: listed apart in the source
yellow nutsedge [3] = system: yellow nutsedge; set-up: species or system Cyperus esculentus; settings: in vivo
yellow nutsedge [4] = system: yellow nutsedge; set-up: species or system Cyperus esculentus; settings: in vivo; remark: listed apart in the source
[5] = system: three grassy weeds (wild oat, watergrass, foxtail); set-up: species or system Avena fatua, Echinochloa crusgalli, Setaria viridis; settings: in vivo
[6] = system: three broadleaf weeds: wild mustard, redroot pigweed and curly dock; assay: Post-emergence herbicidal activity, broadleaf weeds (Table III); format: in vivo, Brassica kaber, Amaranthus retroflexus, Rumex crispus; settings: 2.24 kg/ha, 2-3 weeks after treatment
Procedure: (§1) The herbicidal effect was observed by comparing the extent of weed control in test flats treated with the compounds against that occurring in similar non-treated control flats. All were applied at 3.57 lb/A (4 kg/ha) to pre-emergence and post-emergence screening flats. An 80 gal/A (748.3 1/ha) spray volume was utilized. Post-emergence flats were seeded 12 days prior to treatment. Pre-emergence flats were seeded one day prior to treatment. Overhead watering of pre-emergence flats and soil surface watering of post-emergence flats, so as to avoid wetting the foliage, were carried out for the duration of the test.
(§2) Weed seeds were planted in a flat at a seed depth of 0.5 inch (1.3 cm). Soil for flats was prepared using loam soil fortified with 17-17-17 fertilizer (N-P2 O5 -K2 O on a weight basis) and Captan 80W fungicide. The test weeds were as follows:
(§3) The spray solutions were prepared by dissolving 240 mg of test compound in 20 ml of acetone containing 1% polyoxyethylene sorbitan monolaurate emulsifier, then adding 20 ml of water to the resulting solution. The spray solutions were applied using a linear spray table. Pre-emergence flats are raised to the level of the post-emergence foliage canopy by setting the flats on a wooden block.
(§4) The degree of weed control was visually assessed and recorded as percentage control compared to the growth of the same species in an untreated check flat of the same age. The rating scale ranges from 0 to 100%, where 0 equals no effect with plant growth equal to the untreated control, and 100 equals complete kill.
(§5) Compounds 68 to 145 in Table I were tested generally similarly to Compounds No. 1 to 67 with the following differences: The rate of application was 2 lb/acre (2.24 kg/ha), no 6-day evaluations were made, and the weeds were:
Three broadleaf weeds: wild mustard, redroot pigweed (Amaranthus retroflexus) and curly dock (Rumex crispus).
(§6) Ratings were taken 2-3 weeks after treatment.

[7] = system: four grassy weeds: wild oat, watergrass, green foxtail and crabgrass; assay: Post-emergence herbicidal activity, grassy weeds (Table III); format: in vivo; settings: 2.24 kg/ha, 2-3 weeks after treatment
Procedure: as §1, §2, §3, §4, §5
Four grassy weeds: wild oat, watergrass, green foxtail and crabgrass (Digitaria sanguinalis);
as §6

SMILES	% Control, Post-emergence, BL avg. [1]	% Control, Pre-emergence, BL avg. [2] [%]	% Control, Pre-emergence, NS (yellow nutsedge [3]) [%]	% Control, Post-emergence, NS (yellow nutsedge [4])	% Control, Pre-emergence, GR avg. [5] [%]	% Control, Post-Emergence, BL Avg. [6] [%]	% Control, Post-Emergence, GR Avg. [7] [%]
CCCSP(=O)(N(CCC)CCC)N(C)c1ccc(OC(F)(F)F)c(Cl)c1 (stereo not shown) [Compound 66]	90% and 98%	10	0	0% and 5%	0		
CCCSP(=O)(N(CCC)CCC)N(C)c1cc(F)ccc1C (stereo not shown) [Compound 67]	95% and 100%	16	0	0%	0		
CCCN(CCC)P(=O)(SC(C)CC)N(C)c1ccccc1 (stereo not shown) [Compound 122]						79	56
CCCC(CC)SP(=O)(N(CC)CC)N(CC)CC (stereo not shown) [Compound 105]						73	54.5
CCCSP(=O)(N(CCC)CCC)N(C)c1ccc(F)cc1C (stereo not shown) [Compound 64]	85% and 93%	0	0	0% and 5%	3		
CCCCN(CCCC)P(=O)(SC(C)(C)C)N(C)C (stereo not shown) [Compound 106]						91	65
CCCSP(=O)(N(CCC)CCC)N(C)c1ccc(F)c(F)c1F (stereo not shown) [Compound 47]	100% and 98%	0	0	0%	0		
CCCCSP(=O)(N(CCC)CCC)N1CCCCC1 (stereo not shown) [Compound 74]						100	47
CCCSP(=O)(N(CCC)CCC)N1CCCCC1 (stereo not shown) [Compound 73]						87	55
CCCCN(CC)P(=O)(SCCC)N(CC)CC (stereo not shown) [Compound 139]						70	65
CCCSP(=O)(N(CCC)CCC)N(C)c1ccc(C(C)C)cc1 (stereo not shown) [Compound 58]	70% and 61%	0	0	0%	0		
CCCSP(=O)(N(CCC)CCC)N(C)c1ccc(C#N)cc1 (stereo not shown) [Compound 41]		0	0	0%	0		
CCCSP(=O)(N(CCC)CCC)N(C)c1ccc(OC)cc1C (stereo not shown) [Compound 65]	70% and 76%	0	0	0%	0		
CCCSP(=O)(N(CCC)CCC)N(CC)c1ccc(F)cc1 (stereo not shown) [Compound 54]	100%	8	0	0%	0		
CCCCN(CC)P(=O)(SCC)N(CC)CC (stereo not shown) [Compound 138]						69	63
CCCCSP(=O)(N(CC)CC)N1CCCCCC1 (stereo not shown) [Compound 93]						99	73
CCCN(CCC)P(=O)(SCC)N(CC)CC (stereo not shown) [Compound 144]						78	59
CCCSP(=O)(N(CCC)CCC)N(C)c1ccc(F)cc1F (stereo not shown) [Compound 19]		0		0%	0		
CCCCN(CCCC)P(=O)(SCCC)N(C)c1ccc(Cl)cc1OC (stereo not shown) [Compound 18]	30% and 60%	0	0	0%	0		
CCN(CC)P(=O)(SC(C)C)N(CC)CC [Compound 103]						73	67
CCC(C)SP(=O)(N(CC)CC)N(CC)CC (stereo not shown) [Compound 104]						87	77
CCCCCN(CCCCC)P(=O)(SCCC)N(C)c1ccc(Cl)cc1 (stereo not shown) [Compound 17]	50% and 43%	33	0	10% and 0%	57		

SMILES	% Control, Post-emergence, BL avg. [1]	% Control, Pre-emergence, BL avg. [2] [%]	% Control, Pre-emergence, NS (yellow nutsedge [3]) [%]	% Control, Post-emergence, NS (yellow nutsedge [4])	% Control, Pre-emergence, GR avg. [5] [%]	% Control, Post-Emergence, BL Avg. [6] [%]	% Control, Post-Emergence, GR Avg. [7] [%]
C=CCSP(=O)(N(C)C)N(CCCC)CCCC (stereo not shown) [Compound 112]						87	56
CCCCN(CCCC)P(=O)(SCCC)N(C)c1ccc(Cl)c(Cl)c1 (stereo not shown) [Compound 21]	20% and 40%	0	0	0%	0		
CCCSP(=O)(N(CCC)CCC)N(C)c1ccccc1C(C)C (stereo not shown) [Compound 56]	85% and 90%	6	0	0%	31		
CCCN(CCC)P(=O)(SC(C)C)N(C)c1ccccc1 (stereo not shown) [Compound 120]						71	50
CCCCN(c1ccc(F)cc1)P(=O)(SCCC)N(CCC)CCC (stereo not shown) [Compound 55]	90% and 86%	3	5	0%	13		
CCCCN(CCCC)P(=O)(SCC)N(C)C (stereo not shown) [Compound 107]						98	64
CCCN(CCC)P(=O)(Sc1cccc(Cl)c1)N(CCC)CCC [Compound 60]	75% and 73%	13	0	0%	0		
C=CCSP(=O)(N(CCC)CCC)N1CCCCCC1 (stereo not shown) [Compound 100]						95	63
CCCCN(CC)P(=O)(SC(C)C)N(CC)CC (stereo not shown) [Compound 140]						66	68
CCCCSP(=O)(N(C)C)N(CCCC)CCCC (stereo not shown) [Compound 110]						98	93
CCCCSP(=O)(N(CCC)CCC)N(C)c1ccccc1 (stereo not shown) [Compound 121]						72	59
CCCCN(CC)P(=O)(SC(C)c1ccccc1)N(CC)CC (stereo not shown) [Compound 143]						69	52
CCCCN(CCCC)P(=O)(SCc1ccccc1)N(C)C (stereo not shown) [Compound 113]						83	48
CCCN(CCC)P(=O)(SCC)N1CCCCC1 (stereo not shown) [Compound 72]						86	50
CCCSP(=O)(N(CC)CC)N(CC)CC [Compound 68]						87	40
CCCSP(=O)(N(CC)CC)N1CCCCCC1 (stereo not shown) [Compound 92]						86	62
CCN(CC)P(=O)(SCc1ccccc1)N(CC)CC [Compound 94]						70	30
CCN(CC)P(=O)(SC(C)C)N1CCCCCC1 (stereo not shown) [Compound 101]						100	69
CCCCN(CC)P(=O)(SC1CCCCC1)N(CCC)CCC (stereo not shown) [Compound 137]						88	53
CCCCN(CCCC)P(=O)(SC1CCCCC1)N(CCCC)CCCC [Compound 136]						90	50
CCCCSP(=O)(N(CC)CC)N(CC)CCCC (stereo not shown) [Compound 141]						86	65
CCCCCCSP(=O)(N(CCCC)CCCC)N(CCCC)CCCC [Compound 134]						90	56
